Measurements: ChEMBL document CHEMBL1144968, “Novel, highly potent, selective 5-HT2A/D2 receptor antagonists as potential atypical antipsychotics” (Bioorg Med Chem Lett, 2003)

Key:
D(2) dopamine receptor = D(2) dopamine receptor (Homo sapiens, UniProt P14416); experiment: Binding affinity towards DA D2 receptor using [3H]N-methyl-spiperone as radioligand.
[1] = target: Dopamine D2 receptor and serotonin 2a receptor (Homo sapiens) (UniProt P14416+P28223); experiment: Selectivity ratio for inhibition of dopamine D2 receptor to that of 5-HT2A receptor.; format: protein assay
[2] = target: 5-hydroxytryptamine receptor 2A (Homo sapiens, UniProt P28223); experiment: Binding affinity towards 5-hydroxytryptamine 2A receptor using [125I]DOI as radioligand.
[3] = target: T1, 5-hydroxytryptamine receptor 2C (Homo sapiens, UniProt P28335); experiment: Binding affinity towards 5-hydroxytryptamine 2C receptor using [125I]DOI as radioligand.
T1 sequence (P28335 whole entry): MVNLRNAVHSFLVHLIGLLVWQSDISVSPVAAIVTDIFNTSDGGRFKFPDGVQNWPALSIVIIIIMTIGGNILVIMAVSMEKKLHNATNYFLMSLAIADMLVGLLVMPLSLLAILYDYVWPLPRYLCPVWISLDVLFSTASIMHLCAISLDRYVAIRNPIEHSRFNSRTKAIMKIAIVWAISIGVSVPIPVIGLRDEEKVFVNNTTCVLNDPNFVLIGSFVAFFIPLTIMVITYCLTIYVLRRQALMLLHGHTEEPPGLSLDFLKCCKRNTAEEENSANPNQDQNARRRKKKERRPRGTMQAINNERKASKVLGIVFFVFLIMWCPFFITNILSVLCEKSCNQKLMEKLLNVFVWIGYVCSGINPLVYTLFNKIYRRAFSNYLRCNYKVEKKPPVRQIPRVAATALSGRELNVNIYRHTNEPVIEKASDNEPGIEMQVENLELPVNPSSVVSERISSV

Rattus norvegicus = experiment: Inhibition of quipazine induced head twitching after peroral administration in rat.; format: functional; conditions: po

Sequence of Dopamine D2 receptor and serotonin 2a receptor (Homo sapiens) (P14416 whole entry, looked up): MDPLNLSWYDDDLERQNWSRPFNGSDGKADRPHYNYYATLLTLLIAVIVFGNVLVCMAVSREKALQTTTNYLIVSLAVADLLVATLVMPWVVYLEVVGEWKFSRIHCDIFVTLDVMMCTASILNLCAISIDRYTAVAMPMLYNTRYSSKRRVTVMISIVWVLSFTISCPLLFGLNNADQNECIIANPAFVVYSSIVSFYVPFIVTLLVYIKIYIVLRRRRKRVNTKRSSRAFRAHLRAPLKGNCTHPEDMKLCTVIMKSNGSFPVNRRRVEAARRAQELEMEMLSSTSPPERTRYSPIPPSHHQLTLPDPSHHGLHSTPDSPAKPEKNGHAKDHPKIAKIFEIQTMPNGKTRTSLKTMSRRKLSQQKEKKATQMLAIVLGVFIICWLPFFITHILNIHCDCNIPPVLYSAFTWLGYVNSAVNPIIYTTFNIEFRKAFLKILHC
Sequence of Dopamine D2 receptor and serotonin 2a receptor (Homo sapiens) (P28223 whole entry, looked up): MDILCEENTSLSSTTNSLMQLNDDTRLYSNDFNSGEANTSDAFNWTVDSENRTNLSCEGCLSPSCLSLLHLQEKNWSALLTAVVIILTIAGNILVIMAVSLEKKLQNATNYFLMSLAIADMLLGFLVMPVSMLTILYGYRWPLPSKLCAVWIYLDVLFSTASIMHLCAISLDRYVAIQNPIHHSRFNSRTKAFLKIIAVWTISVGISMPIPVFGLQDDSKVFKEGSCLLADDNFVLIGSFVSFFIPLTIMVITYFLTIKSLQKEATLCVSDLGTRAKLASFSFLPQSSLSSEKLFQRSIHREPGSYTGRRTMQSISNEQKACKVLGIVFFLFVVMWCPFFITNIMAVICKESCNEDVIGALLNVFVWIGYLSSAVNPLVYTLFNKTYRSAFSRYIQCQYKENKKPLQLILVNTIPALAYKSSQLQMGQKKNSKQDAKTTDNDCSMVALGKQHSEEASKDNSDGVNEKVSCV
Sequence of D(2) dopamine receptor (P14416 whole entry): as the sequence (P14416 whole entry, looked up) above
Sequence of 5-hydroxytryptamine receptor 2A (P28223 whole entry): as the sequence (P28223 whole entry, looked up) above

Compound `O=C(CCCN1CC[C@H]2[C@@H](C1)c1cccc3c1N2CCCS3)c1ccccc1` has a Ki (D(2) dopamine receptor) of 17 nM, a Ratio [1] of 6.3 and a Ki [2] of 2.7 nM. The Ki [3] was 417 nM.

Compound `CC(=O)Nc1cc(F)ccc1C(=O)CCCN1CC[C@H]2[C@@H](C1)c1cccc3c1N2CCCS3` has a Ki (D(2) dopamine receptor) of 3.4 nM, a Ratio [1] of 4.3 and a Ki [2] of 0.8 nM. The Ki [3] was 222 nM.

For `Nc1ccccc1C(=O)CCCN1CC[C@@H]2[C@H](C1)c1cccc3c1N2CCC3`, the Ki (D(2) dopamine receptor) was 63 nM, the Ratio [1] was 17 and the Ki [2] was 3.7 nM. For the same compound, the Ki [3] was 94 nM.

In the case of `O=C(CCCN1CC[C@H]2[C@@H](C1)c1cccc3c1N2CCCS3)c1ccc(F)cc1`, the Ki (D(2) dopamine receptor) is reported as 8.8 nM, the Ratio [1] is reported as 3.5 and the Ki [2] is reported as 2.5 nM. The ED50 (Rattus norvegicus) was 0.86 mg/kg and the Ki [3] was 609 nM.

Compound `Nc1ccccc1C(=O)CCCN1CC[C@H]2[C@@H](C1)c1cccc3c1N2CCCC3` has a Ki (D(2) dopamine receptor) of 11 nM, a Ratio [1] of 16 and a Ki [2] of 0.7 nM. The Ki [3] was 106 nM.

`Nc1cc(F)ccc1C(=O)CCCN1CC[C@@H]2[C@H](C1)c1cccc3c1N2CCS3` showed a Ki (D(2) dopamine receptor) of 14 nM, a Ratio [1] of 9.3 and a Ki [2] of 1.5 nM. It also gave a Ki [3] of 184 nM.

`Nc1cc(F)ccc1C(=O)CCCN1CC[C@H]2[C@@H](C1)c1cccc3c1N2CCO3` showed a Ki (D(2) dopamine receptor) of 2.3 nM, a Ratio [1] of 12 and a Ki [2] of 0.2 nM. It also gave a Ki [3] of 128 nM.

Work on `Nc1cc(F)ccc1C(=O)CCCN1CC[C@@H]2[C@H](C1)c1cccc3c1N2CCO3` yielded a Ki (D(2) dopamine receptor) of 16 nM, a Ratio [1] of 5.7 and a Ki [2] of 2.8 nM. For the same compound, the ED50 (Rattus norvegicus) was 0.03 mg/kg and the Ki [3] was 664 nM.

`Nc1ccccc1C(=O)CCCN1CC[C@@H]2[C@H](C1)c1cccc3c1N2CCS3` gave a Ki (D(2) dopamine receptor) of 19 nM, a Ratio [1] of 2.9 and a Ki [2] of 6.6 nM. The Ki [3] was 237 nM.

`Nc1ccccc1C(=O)CCCN1CC[C@@H]2[C@H](C1)c1cccc3c1N2CCCS3` was tested, and the Ki (D(2) dopamine receptor) was 5.9 nM, the Ratio [1] was 0.57 and the Ki [2] was 10.4 nM. The Ki [3] was 320 nM.

`O=CNc1cc(F)ccc1C(=O)CCCN1CC[C@H]2[C@@H](C1)c1cccc3c1N2CCCS3` showed a Ki (D(2) dopamine receptor) of 7.7 nM, a Ratio [1] of 0.09 and a Ki [2] of 90 nM. The Ki [3] was 259 nM.

`Nc1cc(F)ccc1C(=O)CCCN1CC[C@@H]2[C@H](C1)c1cccc3c1N2CCC3` gave a Ki (D(2) dopamine receptor) of 29 nM, a Ratio [1] of 24 and a Ki [2] of 1.2 nM. It also gave an ED50 (Rattus norvegicus) of 1.4 mg/kg and a Ki [3] of 71 nM.

`CCNC(=O)Nc1cc(F)ccc1C(=O)CCCN1CC[C@H]2[C@@H](C1)c1cccc3c1N2CCCS3` was tested, and the Ki (D(2) dopamine receptor) was 26 nM, the Ratio [1] was 2.3 and the Ki [2] was 11 nM. It also gave a Ki [3] of 48 nM.

For `Nc1ccccc1C(=O)CCCN1CC[C@H]2[C@@H](C1)c1cccc3c1N2CCCS3` (stereo in doubt; 4) [listing 1 of 2 here], the Ratio [1] was 2.9.

With `Nc1cc(F)ccc1C(=O)CCCN1CC[C@H]2[C@@H](C1)c1cccc3c1N2CCCS3` (stereo in doubt; 6) [listing 1 of 2 here] the Ki (D(2) dopamine receptor) was 4.1 nM, the Ki [2] was 0.7 nM and the Ki [3] was 106 nM.

Compound `Nc1ccccc1C(=O)CCCN1CC[C@H]2[C@@H](C1)c1cccc3c1N2CCCS3` (stereo in doubt; 4) [listing 2 of 2 here] has a Ki (D(2) dopamine receptor) of 6 nM, a Ki [2] of 2.1 nM and a Ki [3] of 200 nM.

`Nc1cc(F)ccc1C(=O)CCCN1CC[C@H]2[C@@H](C1)c1cccc3c1N2CCS3` gave a Ki (D(2) dopamine receptor) of 4 nM, a Ratio [1] of 13 and a Ki [2] of 0.3 nM. For the same compound, the Ki [3] was 90 nM.

`Nc1cc(Cl)ccc1C(=O)CCCN1CC[C@H]2[C@@H](C1)c1cccc3c1N2CCCS3` was tested, and the Ki (D(2) dopamine receptor) was 2.3 nM, the Ratio [1] was 0.03 and the Ki [2] was 70 nM. For the same compound, the Ki [3] was 754 nM.

Work on `Nc1ccccc1C(=O)CCCN1CC[C@H]2[C@@H](C1)c1cccc3c1N2CCS3` yielded a Ki (D(2) dopamine receptor) of 41 nM, a Ratio [1] of 51 and a Ki [2] of 0.8 nM. It also gave a Ki [3] of 417 nM.

Compound `Nc1ccccc1C(=O)CCCN1CC[C@H]2[C@@H](C1)c1cccc3c1N2CCCS3` (stereo in doubt; (+)-4) [listing 1 of 2 here] has a Ki (D(2) dopamine receptor) of 15 nM, a Ki [2] of 0.6 nM and a Ki [3] of 172 nM.

With `Nc1ccccc1C(=O)CCCN1CC[C@@H]2[C@H](C1)c1cccc3c1N2CCO3` the Ki (D(2) dopamine receptor) was 60 nM, the Ratio [1] was 5 and the Ki [2] was 11.9 nM. For the same compound, the Ki [3] was 501 nM.

With `Nc1ccc(F)cc1C(=O)CCCN1CC[C@H]2[C@@H](C1)c1cccc3c1N2CCCS3` the Ki (D(2) dopamine receptor) was 15 nM, the Ratio [1] was 1 and the Ki [2] was 15 nM. It also gave a Ki [3] of 258 nM.

`Nc1cc(O)ccc1C(=O)CCCN1CC[C@H]2[C@@H](C1)c1cccc3c1N2CCCS3` gave a Ki (D(2) dopamine receptor) of 50 nM, a Ratio [1] of 0.56 and a Ki [2] of 90 nM. For the same compound, the Ki [3] was 259 nM.

Compound `Nc1cc(F)ccc1C(=O)CCCN1CC[C@H]2[C@@H](C1)c1cccc3c1N2CCCS3` (stereo in doubt; (+)-6) [listing 1 of 2 here] has a Ki (D(2) dopamine receptor) of 2.7 nM, a Ki [2] of 0.4 nM and an ED50 (Rattus norvegicus) of 0.52 mg/kg. The Ki [3] was 82 nM.

Compound `Nc1cc(F)ccc1C(=O)CCCN1CC[C@H]2[C@@H](C1)c1cccc3c1N2CCC3` has a Ki (D(2) dopamine receptor) of 5.2 nM, a Ratio [1] of 10.2 and a Ki [2] of 0.5 nM. It also gave a Ki [3] of 53 nM.

`Nc1cc(F)ccc1C(=O)CCCN1CC[C@@H]2[C@H](C1)c1cccc3c1N2CCCC3` showed a Ki (D(2) dopamine receptor) of 19 nM, a Ratio [1] of 21 and a Ki [2] of 0.9 nM. For the same compound, the Ki [3] was 136 nM.

With `Nc1ccccc1C(=O)CCCN1CC[C@@H]2[C@H](C1)c1cccc3c1N2CCCC3` the Ki (D(2) dopamine receptor) was 20 nM, the Ratio [1] was 6.5 and the Ki [2] was 3.1 nM. It also gave a Ki [3] of 148 nM.

`Nc1cc(Br)ccc1C(=O)CCCN1CC[C@H]2[C@@H](C1)c1cccc3c1N2CCCS3` gave a Ki (D(2) dopamine receptor) of 4.7 nM, a Ratio [1] of 0.06 and a Ki [2] of 79 nM. It also gave a Ki [3] of 112 nM.

With `CS(=O)(=O)Nc1cc(F)ccc1C(=O)CCCN1CC[C@H]2[C@@H](C1)c1cccc3c1N2CCCS3` the Ki (D(2) dopamine receptor) was 18 nM, the Ratio [1] was 2.4 and the Ki [2] was 7.5 nM. It also gave a Ki [3] of 639 nM.

In the case of `Nc1cc(F)ccc1C(=O)CCCN1CC[C@H]2[C@@H](C1)c1cccc3c1N2CCCS3` (stereo in doubt; 6) [listing 2 of 2 here], the Ratio [1] is reported as 5.9.

`CNc1ccccc1C(=O)CCCN1CC[C@H]2[C@@H](C1)c1cccc3c1N2CCCS3` was tested, and the Ki (D(2) dopamine receptor) was 31 nM, the Ratio [1] was 0.5 and the Ki [2] was 62 nM. It also gave a Ki [3] of 253 nM.

Compound `Nc1ccccc1C(=O)CCCN1CC[C@H]2[C@@H](C1)c1cccc3c1N2CCCS3` (stereo in doubt; (+)-4) [listing 2 of 2 here] has a Ratio [1] of 25.

Compound `Nc1c(F)cccc1C(=O)CCCN1CC[C@H]2[C@@H](C1)c1cccc3c1N2CCCS3` has a Ki (D(2) dopamine receptor) of 14 nM, a Ratio [1] of 1.8 and a Ki [2] of 7.6 nM. The Ki [3] was 672 nM.

With `Nc1cc(F)ccc1C(=O)CCCN1CC[C@H]2[C@@H](C1)c1cccc3c1N2CCCS3` (stereo in doubt; (+)-6) [listing 2 of 2 here] the Ratio [1] was 6.8.

For `Nc1cc(F)ccc1C(=O)CCCN1CC[C@@H]2[C@H](C1)c1cccc3c1N2CCCS3`, the Ki (D(2) dopamine receptor) was 4.7 nM, the Ratio [1] was 1.1 and the Ki [2] was 4.2 nM. The Ki [3] was 452 nM.

`Nc1cc(F)ccc1C(=O)CCCN1CC[C@H]2[C@@H](C1)c1cccc3c1N2CCCC3` gave a Ki (D(2) dopamine receptor) of 3.5 nM, a Ratio [1] of 5.8 and a Ki [2] of 0.6 nM. The Ki [3] was 136 nM.

Work on `Nc1ccccc1C(=O)CCCN1CC[C@H]2[C@@H](C1)c1cccc3c1N2CCO3` yielded a Ki (D(2) dopamine receptor) of 23 nM, a Ratio [1] of 14 and a Ki [2] of 1.6 nM. The Ki [3] was 335 nM.

Work on `Nc1ccccc1C(=O)CCCN1CC[C@H]2[C@@H](C1)c1cccc3c1N2CCC3` yielded a Ki (D(2) dopamine receptor) of 68 nM, a Ratio [1] of 85 and a Ki [2] of 0.8 nM. For the same compound, the Ki [3] was 106 nM.

Work on `CCOC(=O)Nc1cc(F)ccc1C(=O)CCCN1CC[C@H]2[C@@H](C1)c1cccc3c1N2CCCS3` yielded a Ki (D(2) dopamine receptor) of 15.1 nM, a Ratio [1] of 0.29 and a Ki [2] of 51 nM. For the same compound, the Ki [3] was 349 nM.
